Where “and” joins values, the source holds several entries; their conditions need not be identical. Equal values may be shown once. Entries after “also recorded” stand apart in the source; their conditions may differ. Read-outs that look alike come from different tables or passages of the source.

The subject of one assay is MDA-MB-435S xenograft. The assay can be described thus: MDA-MB-435S xenograft, minimal effective dose, once weekly. It counts as in vivo, Nu/Nu mice. On the procedure:
To determine the minimal effective dose necessary to reduce MDA-MB-435S xenograft weights in a single dose regimen, Nu/Nu female mice, outbred strain, age 5 weeks (Charles River), were injected (s.c.) into the interscapular region with a MDA-MB-435S (passage #249)/Matrigel suspension (2.4×10^6 cells/mouse) [Leuschner 2006].
Each group consisted of 16 mice, which were injected once a week for 3 weeks. A group of 16 mice was sacrificed at the time of treatment start to serve as baseline. Saline injections served as control groups. During the entire study tumor volumes were recorded twice weekly.
Treatment started on day 16 after tumor cell injection when the tumors were established and continued on days 23 and 30. All remaining mice were necropsied 37 days after tumor cell injection.
Treatment response was determined by tumor weights and tumor weight change at necropsy compared to saline controls and untargeted CLIP71 treatment. Primary tumors were collected, weighed and prepared for histological evaluation in formalin fixation with 10% PBS buffered formalin. Statistical evaluation of data sets were conducted in GraphPad Prizm 4 and significance calculated by Wilcoxon signed-rank test.

A further assay has as its system MCF-7 cells. The assay can be described thus: Time course of cytotoxicity in MCF-7 cells (MTT). It counts as cell-based, human. To be noted: for incubation time to maximal efficacy: MCF-7 cells. From the text:
(§1) Membranes of non-cancerous cell lines are neutral and are resistant to cytolytic peptides, in contrast to cancer cell lines, which have a high phosphatidic acid content in their outer membrane.
(§2) The melanoma cell line studied was MDA-MB-435S (estrogen receptor alpha negative), breast cancer cell lines MCF-7 and T47D (estrogen receptor alpha positive), ovarian cancer cell lines (OVCAR-3 and SKOV-3), prostate cancer (LNCaP), the non-malignant breast epithelial cell line MCF-10A and the mouse fibroblast cell line NIH:3T3.
(§3) Cells were seeded into 96 well plates at a density of 10,000 cells/well. […] Controls contained USP saline or 0.1% TritonX-100™ as reference for 0 and 100% cell death, respectively. Incubations were terminated by removing the culture media after 2 minutes, 5 minutes, 15 minutes, 30 minutes, 1 hour, 2 hours, 6 hours, 24 and 48 hours. Cell viability was assessed through formazan conversion assay (MTT assay, (CellTiter 96 Aqueous One, Promega # G3582). Formazan conversion was determined using a BioRad Benchmark Plus microplate spectrophotometer dual wavelengths at 490/630 nm at room temperature).
(§4) Data were calculated as fraction of absorption in TritonX-100™ containing wells representing 100% cell death versus 0% cell death in saline containing wells. Cytotoxicity was determined as ICso using GraphPad Prism version 5.01 for Windows, GraphPad Software, San Diego California USA according to the program for sigmoidal dose response with variable slope using constraint values of 0 and 100%. 4 wells of each individual set of two 96 well plates were compared and analyzed. Statistical analysis for significance was determined by a two-tailed Student's T-test.

A further assay deals with SKOV-3 cells. As to the kind of experiment: Time course of cytotoxicity in SKOV-3 cells (MTT). It counts as cell-based, human.
From the text: as §1, §2, §3, §4

The next assay has as its system MDA-MB-435S.luc cells. It counts as cell-based, human. The source says: This example describes screening for cell toxicity (IC50) and hemolytic activity using a human breast cancer cell line.
The human melanoma cell line MDA-MB-435S.luc, which over expresses chorionic gonadotrophin (CG) and luteinizing hormone-releasing hormone (LHRH) receptors, was used to screen at passage numbers 248-252. The MDA-MB-435S.luc cell line was constructed from the MDA-MB-435S cell line obtained from the American Type Cell Culture Collection by stable transfection with the plasmid PRC/CMV-luc containing the Photinus pyralis luciferase gene and an […] resistance gene by lipofection. The stably transfected cell line was selected using G418 and the clones with the highest expression for the luciferase gene were tested for their LH and LHRH receptor expression.
MDA-MB-435S.luc cells were grown in Leibovitz's L 15 medium, 10% fetal bovine serum, 0.01 mg/ml bovine insulin, 100 IU/ml penicillin, 100 microg/ml streptomycin. The cells were cultured in tight closed flasks. The incubations were conducted using 96 well plates at 10,000 cells per well. Cells were typically seeded into 96 well plates and media was replaced after 48 hours of incubation. Each assay was conducted at increasing concentrations of 0, 0.001, 0.01, 0.05, 0.1, 0.5, 1, 2, 5, 10 and 100 micromolar doses of lytic peptide-binding domain conjugate. Each lytic peptide-binding domain conjugate provided in lyophilized form and was freshly dissolved in saline and added to cells. The duration of incubation was typically 24 h, and cell viability assays were conducted using formazan conversion assays (MTT assay). Controls contained saline or 0.1% triton as reference for 0 and 100% cell death, respectively.
Data were processed and analyzed using Graph Pad Prizm 4™ software (Graph Pad Prizm, Inc). Statistical analysis for significance was determined by a two-tailed Student's T-test. Each study was conducted to achieve an N of at least 8.

In a further assay the test system is OVCAR-3 xenograft. As to the kind of experiment: OVCAR-3 ovarian cancer xenograft. The class given is in vivo, Nu/Nu mice. To be noted: for tumor volume: CLIP71 2 mg/kg, cisplatinum 10 mg/kg. The protocol: In brief, Nu/Nu female mice, inbred strain, age 5 weeks (Harlan-Sprague Dawley) were injected subcutaneously with a NIH:OVCAR-3 cells/Matrigel suspension (4.6×10^6 cells/mouse). Treatment was started on day 33 after tumor cell injection when the tumors were established and continued on days 41 and 47. The doses for the 3 weekly injections were 0.02, 0.2 and 2 mg/kg body weight, given as a single bolus intravenous injection via lateral tail vein administered once a week for three weeks on days 33, 41 and 47. Necropsies were conducted on day 52. Data are presented as mean […]SEM. Arrows show dosing.
A group of 9 tumor bearing mice was sacrificed on day 33 and served as baseline group. All mice were necropsied 51-52 days after tumor cell injection. Tumor volumes and bodyweights were recorded twice weekly during the study, as well as overall veterinarian examination of mice was conducted.
Primary tumors, liver, kidney, pancreas, heart, lung, and spleen were collected, fixed in formalin and prepared for histological evaluation. Tumor weights were measured at necropsy, part of the tumors were frozen at −80° C. for LH/CG and LHRH receptor assay determination.
As a biomarker for drug activity, CA 125 was determined in serum, collected from each individual mouse at necropsy using a Enzyme Linked Immunoassay for quantitative determination of ovarian cancer antigen CA125 (Assay kit Genway, Biotech, Inc. San Diego, CA, Catalog #40-052-115009, #BC-1013 according to the manufacturer).
LHRH receptor levels were assessed from formalin fixed tumors. Quantitative immunoperoxidase image analysis was conducted with the Ventana Image Analysis System (VIAS) adjunctive computer assisted image analysis system functionally connected to an interactive microscope (Axio Imager). The quantitative analysis was conducted with the program for quantification of Her2/neu receptor that included morphometric and colorimetric analysis. Receptor status results were reported as percentage of cells showing positive staining of the LHRH receptors under the following criteria: 0 non-immunoreactive, 1+: 1-25% positive, 2+: 26-50% positive, 3+: 51-75% positive cells.

Where [1] appears, read: MDA-MB-435S.luc, 1 × 3 wk, 22 d, minimal effective dose study.
Setting [2] is: MDA-MB-435S.luc cells, 24 h, MTT, read-out: IC50.

Regarding “KFAKFAKKFAKFAKKFAKQHWSYGLRPG [Phor18-LHRH]”, the “Median Tumor Weight vs Baseline p < 0.05 (lowest dose)” value in the assay on MDA-MB-435S xenograft (setting [1]) is 2 µg/kg. For the same sequence, in the assay with MDA-MB-435S xenograft (setting [1]), the “Median Tumor Weight vs Saline P < 0.05 (lowest dose)” value was 0.2 µg/kg. In addition, the “Remarks / histology of tumors” value with MDA-MB-435S xenograft (Phor18-LHRH at doses as low as 0.0002 mg/kg, CLIP71/LHRH 0.2/0.122 mg/kg) is “significant necrosis”. For the same sequence, the 50% inhibitory concentration (IC50) with MCF-7 cells (MCF-7 (p152), read-out: IC50 with increasing incubation time) is 1.8 to 3.4 µM; in the assay with MDA-MB-435S.luc cells (setting [2]) it was 0.87 ± 0.11 µM; in the assay with MDA-MB-435S.luc cells (MDA-MB-435S.luc cells, places that print μm (Table 2: lytic peptide row + hinge column + ligand section), read-out: IC50), 0.87 µM; with MDA-MB-435S.luc cells (MDA-MB-435S.luc melanoma cell line, read-out: IC50 in Human Cancer Cell Lines), 0.86 ± 0.16 µM. For the same sequence, the “incubation time to maximal efficacy” value is 1 h and 0.5 to 1 h in the assay with MCF-7 cells; 24 h in the assay with SKOV-3 cells (SKOV-3 cells). Further, the “Increased in vitro activity fold” value in the assay on MDA-MB-435S.luc cells (IC50 of 33 (Phor21-βCG-ala, 2.31 μM)/IC50 peptide, MDA-MB-435S.luc) is 2.65 fold. The “lowest concentration with tumor volume reduction compared to baseline” value with OVCAR-3 xenograft (42 days after tumor cell injection, p<0.001) came out at 0.2 mg/kg bodyweight. For the same sequence, the “Median Tumor Weight vs Baseline p < 0.05 (doses)” value in the assay on OVCAR-3 xenograft (OVCAR-3, 1 × 3 wk, 20 d) amounted to 200 µg/kg. For the same sequence, the “Remarks / histology of treated tumors” value with OVCAR-3 xenograft (OVCAR-3 xenograft) is on record as “significant necrosis”. Besides, in the assay on OVCAR-3 xenograft (OVCAR-3 xenograft), the tumor volume entry is “Tumor volumes decreased”. Moreover, the “CA125 secretion (serum)” value with OVCAR-3 xenograft (greatest at 0.2 and 2 mg/kg (p<0.0002 vs saline)) is on record as “reduced”. In addition, in the assay with OVCAR-3 xenograft (treated tumors, immunoperoxidase image analysis), the “reduction of LHRH receptor levels” value is reported as 1-2 score points.

For the sequence “KFAKFAKKFAKFAKKFAK [Phor18, reference compound]”, the “tumor volumes and tumor weights” value with MDA-MB-435S xenograft (CLIP71 plus LHRH 0.2/0.122 mg/kg) is listed as “did not decrease tumor weights”. In addition, in the assay with MCF-7 cells, the “incubation time to maximal efficacy” value was 24 h. Further, the half-maximal inhibitory concentration (IC50) with SKOV-3 cells (SKOV-3 (SKOV-3 and HEK 1A), 24 hours, read-out: IC50) was 11.8 µM; in the assay with SKOV-3 cells (SKOV-3 (p40), listed as CLIP71, read-out: IC50 with increasing incubation time), 86 µM and 96 µM and 53 µM and 50 µM; in the assay with MDA-MB-435S.luc cells (setting [2]), 2.06 ± 0.5 µM. For the same sequence, the tumor weights entry in the assay with OVCAR-3 xenograft (OVCAR-3 xenograft at necropsy) was “not effective in reducing tumor weights”. In addition, the tumor volume result with OVCAR-3 xenograft (OVCAR-3 xenograft) is given as “tumor growth was observed; also recorded: no reduction in tumor volume”.

The record behind these values is US20240228542A1, “LYTIC DOMAIN FUSION CONSTRUCTS, CHECKPOINT INHIBITORS, AND METHODS OF MAKING AND USING SAME” (A28 Therapeutics Inc., priority 2020, published 2024).
